# pIC50: −log10 of the molar value. “And” between values parts separate entries of the source, which are not always exact repeats. Equal values may be shown once.
# Tests used:
# Bovine (aorta) LOX = target: T1, Bovine (aorta) LOX (Bos taurus, UniProt P33072); assay: Amplex Red oxidation assay, LOX inhibition; assay type: biochemical; details: 30 min pre-incubation
# T1 construct: Bovine (aorta) LOX used for analog screening due to ready availability; from tissue; host or cells: bovine aorta
# T1 sequence (P33072 170-418): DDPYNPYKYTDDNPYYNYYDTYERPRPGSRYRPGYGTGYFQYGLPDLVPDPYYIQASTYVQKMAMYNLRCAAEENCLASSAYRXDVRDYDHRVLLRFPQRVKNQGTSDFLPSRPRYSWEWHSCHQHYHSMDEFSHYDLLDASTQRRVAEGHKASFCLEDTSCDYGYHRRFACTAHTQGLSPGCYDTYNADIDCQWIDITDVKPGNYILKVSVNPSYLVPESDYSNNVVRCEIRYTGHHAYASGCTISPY
# Method: (§1) The measurement of the enzymatic activity of all lysyl oxidase family members was based on the detection of hydrogen peroxide with an Amplex-Red oxidation assay, as previously described; miniaturized in 384 well formats, with the appropriate combination of substrate and assay buffer for each individual enzyme. After a 30 min pre-incubation of the enzyme at 37 °C with the test compound (or with different incubation times for the time-dependency assay), one volume of reaction mixture containing 120 μM Amplex Red (AR) (Life Technologies), 1.5 U/mL horseradish peroxidase (HRP) (Sigma-Aldrich) and the specific substrate was added to each sample. The relative fluorescence units (RFU) were then measured every 2.5 min for 30 min at 37 °C, excitation 565 nm and emission 590, on a BMG Clariostar Microplate Reader. All the substrates were used at concentrations corresponding to their Km towards the corresponding enzyme, or with a range of different concentrations for the substrate competition experiments.
# (§2) Lysyl oxidases assay buffer contained 1.2 M urea, 50 mM sodium borate buffer, pH 8.2 and 100 µM β-aminoproprionitrile (BAPN, Sigma-Aldrich) was used for low control.
# Human recombinant LOXL2 = target: T2, Human recombinant LOXL2 (Homo sapiens, UniProt Q9Y4K0); assay: Amplex Red oxidation assay, LOXL2 inhibition; assay type: biochemical; details: 30 min pre-incubation; read-out: LOXL2 IC50
# T2 construct: purchased R&D Systems
# T2 sequence (Q9Y4K0 26-774): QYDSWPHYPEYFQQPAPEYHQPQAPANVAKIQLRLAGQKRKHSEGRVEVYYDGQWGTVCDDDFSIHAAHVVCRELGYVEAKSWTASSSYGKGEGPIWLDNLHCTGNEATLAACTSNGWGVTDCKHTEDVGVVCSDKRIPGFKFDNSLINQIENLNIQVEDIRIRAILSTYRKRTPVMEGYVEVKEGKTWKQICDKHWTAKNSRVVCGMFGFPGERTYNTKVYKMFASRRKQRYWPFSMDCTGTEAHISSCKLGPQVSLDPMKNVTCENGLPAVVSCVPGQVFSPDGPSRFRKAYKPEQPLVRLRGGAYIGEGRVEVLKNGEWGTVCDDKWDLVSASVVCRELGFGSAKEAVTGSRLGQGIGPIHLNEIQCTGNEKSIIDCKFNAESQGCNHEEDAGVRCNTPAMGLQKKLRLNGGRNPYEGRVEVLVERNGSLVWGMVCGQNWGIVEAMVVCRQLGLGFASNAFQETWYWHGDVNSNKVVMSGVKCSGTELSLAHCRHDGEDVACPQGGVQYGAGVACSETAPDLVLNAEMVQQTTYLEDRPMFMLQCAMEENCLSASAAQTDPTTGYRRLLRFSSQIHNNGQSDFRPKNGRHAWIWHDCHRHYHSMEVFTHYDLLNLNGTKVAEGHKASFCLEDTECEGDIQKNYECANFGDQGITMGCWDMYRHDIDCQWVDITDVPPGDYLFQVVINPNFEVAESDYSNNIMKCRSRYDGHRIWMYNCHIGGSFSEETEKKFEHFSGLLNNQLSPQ
# Method: (§3) For compound oxidation assays, the amount of hydrogen peroxide generated at a single concentration (30 µM) of compound relative to DMSO was measured.
# as §1, §2
# Recombinant human LOXL1 was expressed and purified from cDNA (GeneArt) and 10 mM putrescine was used as substrate. Recombinant human and mouse LOXL2 (R&D Systems) were challenged with 5 mM putrescine (Sigma-Aldrich) as the substrate. Rat and dog recombinant LOXL2 were amplified and purified in house from HEK-293 clones kindly provided by Dr. Fernando Rodríguez Pascual, Madrid University, and used in the same conditions as for the human form. 2 mM putrescine was used as the substrate for recombinant human LOXL3 (R&D Systems) and LOXL4 (Dr. Fernando Rodríguez Pascual, university of Madrid, Spain) assays.
# Human Recombinant SSAO = target: T3, Human Recombinant SSAO (Homo sapiens, UniProt Q16853); assay: Compound oxidation assay (substrate propensity) by SSAO; assay type: biochemical; details: single concentration 30 µM
# T3 sequence (Q16853 1-763): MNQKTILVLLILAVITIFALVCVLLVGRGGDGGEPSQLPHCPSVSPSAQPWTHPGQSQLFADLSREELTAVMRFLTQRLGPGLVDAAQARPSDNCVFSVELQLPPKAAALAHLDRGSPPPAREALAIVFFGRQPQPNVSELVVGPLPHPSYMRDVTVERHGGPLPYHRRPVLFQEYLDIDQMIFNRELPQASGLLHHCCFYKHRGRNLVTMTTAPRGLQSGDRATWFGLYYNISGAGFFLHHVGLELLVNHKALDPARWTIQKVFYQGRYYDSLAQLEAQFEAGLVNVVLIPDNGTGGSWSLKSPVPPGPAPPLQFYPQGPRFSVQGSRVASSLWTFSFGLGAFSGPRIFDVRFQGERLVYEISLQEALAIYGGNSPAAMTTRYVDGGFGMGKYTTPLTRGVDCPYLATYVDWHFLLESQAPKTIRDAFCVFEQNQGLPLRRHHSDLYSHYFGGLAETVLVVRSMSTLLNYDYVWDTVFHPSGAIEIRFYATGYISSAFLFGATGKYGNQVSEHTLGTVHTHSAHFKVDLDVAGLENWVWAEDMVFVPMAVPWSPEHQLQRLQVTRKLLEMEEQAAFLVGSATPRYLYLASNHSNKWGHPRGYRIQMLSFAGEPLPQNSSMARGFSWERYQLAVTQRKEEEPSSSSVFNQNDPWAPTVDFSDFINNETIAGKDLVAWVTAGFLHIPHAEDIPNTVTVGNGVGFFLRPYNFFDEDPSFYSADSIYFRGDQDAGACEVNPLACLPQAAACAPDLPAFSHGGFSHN
# Method: as §3
# Data are expressed as mean ± SEM. Subsequent statistical analysis was performed with unpaired two-sided Student’s t tests. *p < 0.05, **p < 0.01, ***p < 0.001and ****p < 0.0001. Source data are provided as a Source Data file.
# This assay determines the substrate propensity of a compound relative to background (dimethyl sulfoxide only). Compound oxidation by rhSSAO was measured by fluorometric assay. Briefly, rhSSAO was incubated for 2 h at 37 °C in HEPES buffer before the addition of an equal volume of Amplex Red ([…]), horseradish peroxidase (4 U/ml), and test compound in the same buffer. The kinetics of the formation of resorufin was measured immediately using Optima reader (BMG Labtech GmbH, Ortenburg, Germany), at 37 °C.
# chicken lysyl oxidase = system: chicken lysyl oxidase; parameters: method as in earlier work; details: cited from earlier work
# [1] = Franz Cell skin permeability assay; assay type: in vitro ADME, human; details: average of 3 samples
SMILES,pIC50 (Bovine (aorta) LOX),pIC50 (Human recombinant LOXL2),Oxidation by SSAO (hydrogen peroxide generated relative to DMSO) (Human Recombinant SSAO),other results
"NC/C(=C/F)CCc1ccc(F)cc1 [Mofegiline, mofegiline, reference compound]",4.25,< 5.00,1.0,inhibition of chicken lysyl oxidase activity (chicken lysyl oxidase): modest inhibitor
NC/C=C(\F)C(F)(F)S(=O)(=O)c1ccccc1 [Samples 6302],,,,Avg. 6302 concentration ([1]; 0hr): 0 µM; Avg.6302 concentration ([1]; 0hr): 0.000 ng/mL; Avg. 6302 concentration ([1]; 2hr): 0.017 µM; Avg.6302 concentration ([1]; 2hr): 4.559 ng/mL; Avg. 6302 concentration ([1]; 4hr): 0.042 µM; Avg.6302 concentration ([1]; 4hr): 11.109 ng/mL; Avg. 6302 concentration ([1]; 6hr): 0.166 µM; Avg.6302 concentration ([1]; 6hr): 44.135 ng/mL; Avg. 6302 concentration ([1]; 20hr): 1.742 µM; Avg.6302 concentration ([1]; 20hr): 462.127 ng/mL
NCC(=CF)COc1ccccc1 [compound 1],< 4.52,5.02,1.1,
NC/C=C(/F)COc1ccccc1 [compound 3],4.87,5.54,12.0,

# Now from value to molecule, other results behind:
pIC50 (Bovine (aorta) LOX),pIC50 (Human recombinant LOXL2),Oxidation by SSAO (hydrogen peroxide generated relative to DMSO) (Human Recombinant SSAO),SMILES,other results
< 4.52,5.06,1.1,NC/C(=C\F)COc1ccccc1 [compound 2],
5.08 and 5.10,5.96,,NC/C=C(\F)COc1ccccc1 [compound 4],
4.97,6.05,2.6,NC/C=C(\F)CN1CCc2ccccc21 [compound 5],
4.87,5.47,5.5,NC/C=C(\F)CNc1ccccc1 [compound 6],
5.07,5.96,68,NC/C=C(\F)CSc1ccccc1 [compound 7],

# Source: PMC9500072, “Topical application of an irreversible small molecule inhibitor of lysyl oxidases ameliorates skin scarring and fibrosis” (Nature Communications, 2022)
